Results as given in patent US4774248A, “Methods of treating depression and depressive states using 5-phenyl-1,4,5,6-tetrahydropyrimidine derivatives” (priority 1985, dated 1988).

Test system: trembling and head twitches induced by 5-hydroxytryptophan (5-HTP)
Assay: Interaction with 5-hydroxytryptophan in association with an MAOI (nialamide)
Assay type: in vivo, male mice
Conditions: for head twitches: i.p., nialamide + (±)-5-HTP, male mice; for trembling: reference β-adrenergic stimulants, 5-HTP + MAOI; for all the effects of 5-HTP: reference substances, in the presence of an MAOI
Description: The purpose of the procedure used is to investigate the activity of each product according to the invention as regards the trembling induced by 5-hydroxytryptophan (5-HTP) in association with an MAOI (in this case nialamide).
Each test product, in solution in distilled water, is administered intraperitoneally in a volume of 20 ml/kg to male mice.
Groups of 10 mice receive nialamide (20 mg/kg, administered gastrically) at time T-18 h, each test product at time T-0.5 h and then (±)-5-HTP (20 mg/kg, administered intraperitoneally) at time T. Immediately after the injection of the (±)-5-HTP, the mice are individually placed in transparent plastic boxes. The generalized trembling, the partial trembling and the head twitches are noted on a yes/no basis for 2 h.

| SMILES | head twitches | trembling | all the effects of 5-HTP |
| --- | --- | --- | --- |
| CC(C)(C)NCC(O)c1cc(O)cc(O)c1 (stereo not drawn) [terbutaline, reference compound] | no modification of the trembling or head twitches | no modification of the trembling or head twitches |  |
| CC(C)NCC(O)c1cc(O)cc(O)c1 (stereo not drawn) [ociprenaline, reference compound] | no modification of the trembling or head twitches | no modification of the trembling or head twitches |  |
| CC(C)NCC(O)c1ccc(O)c(O)c1 (stereo not drawn) [isoprenaline, reference compound] | distinct potentiation of the trembling and head twitches | distinct potentiation of the trembling and head twitches |  |
| CC(C)(C)NCC(O)c1ccc(O)c(CO)c1 (stereo not drawn) [salbutamol, reference compound] | no modification of the head twitches | moderate potentiation of the trembling |  |
| CC(NCCc1ccc(O)cc1)C(O)c1ccc(O)cc1 (stereo not drawn) [ritodrine, reference compound] | no modification of the head twitches | moderate potentiation of the trembling |  |
| CCNC(C)Cc1cccc(C(F)(F)F)c1 (stereo not drawn) [fenfluramine, reference compound] |  |  | potentiate all the effects of 5-HTP in the presence of an MAOI |
| CNCCCN1c2ccccc2CCc2ccccc21 [desipramine, reference compound] |  |  | potentiate all the effects of 5-HTP in the presence of an MAOI |
| CC(Cc1ccc(O)cc1)NCC(O)c1cc(O)cc(O)c1 (stereo not drawn) [fenoterol, reference compound] | moderate potentiation of the head twitches | distinct potentiation of the trembling |  |
| CC(N)Cc1ccccc1 (stereo not drawn) [amphetamine, reference compound] |  |  | potentiate all the effects of 5-HTP in the presence of an MAOI |
